Assay [1] deals with T1, UDP-N-acetylenolpyruvoylglucosamine reductase (Escherichia coli K-12, UniProt P08373).
T1 sequence (P08373 whole entry): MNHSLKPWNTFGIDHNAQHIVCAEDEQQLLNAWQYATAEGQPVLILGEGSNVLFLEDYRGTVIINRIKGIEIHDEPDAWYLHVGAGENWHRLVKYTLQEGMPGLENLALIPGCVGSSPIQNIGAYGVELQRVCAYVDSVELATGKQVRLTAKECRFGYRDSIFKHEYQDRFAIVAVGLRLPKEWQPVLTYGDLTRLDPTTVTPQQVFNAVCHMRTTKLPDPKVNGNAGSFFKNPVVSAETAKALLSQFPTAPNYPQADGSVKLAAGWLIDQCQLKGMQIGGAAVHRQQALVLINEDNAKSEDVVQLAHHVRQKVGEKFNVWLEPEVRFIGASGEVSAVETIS
The experiment in a line: Inhibition of bacterial enzyme UDP-N-acetylmuramate dehydrogenase.

Assay [2] can be described thus: Compound was tested for in vitro inhibitory activity against the bacterial enzyme UDP-N-acetylmuramate dehydrogenase.

These results are taken from ChEMBL document CHEMBL1133327, “4-Thiazolidinones: novel inhibitors of the bacterial enzyme MurB” (Bioorg Med Chem Lett, 2000).

Usually IC50 stands for the concentration at which inhibition is half-maximal. A high value points to lower potency.

Turning to `CC1SC(c2cccc(Oc3ccc(C(C)(C)C)cc3)c2)N([C@@H](Cc2ccccc2)C(=O)O)C1=O` (stereo partly specified), the IC50 result in assay [1] is given as “Not Active”.
Turning to `CC1SC(c2cccc(Oc3ccc(C(C)(C)C)cc3)c2)N([C@@H](CC(=O)O)C(=O)O)C1=O` (stereo partly specified), the IC50 entry in assay [1] was “Not Active”.
On the same count and under the same terms, the entry for `CC1SC(c2cccc(Oc3ccc(C(C)(C)C)cc3)c2)N([C@@H](CO)C(=O)O)C1=O` (stereo partly specified) is “Not Active”; for `CC(C)(C)c1ccc(Oc2cccc(C3SCC(=O)N3[C@@H](CC(=O)O)C(=O)O)c2)cc1` (stereo partly specified) it is “Not Active”.
The same measure, in the same setting: the value for `CC(C)(C)c1ccc(Oc2cccc(C3SCC(=O)N3[C@@H](CO)C(=O)O)c2)cc1` (stereo partly specified) was “Not Active”.
Regarding `CC(C)(C)c1ccc(Oc2cccc(C3SC(CC(=O)NNc4ccccc4)C(=O)N3CC(=O)O)c2)cc1` (stereo unspecified), the IC50 entry in assay [1] was “Not Active”.
Turning to `CC1SC(c2cccc(Oc3ccc(C(C)(C)C)cc3)c2)N(CC(=O)O)C1=O` (stereo unspecified), the IC50 result in assay [1] is on record as “Not Active”.
For `CCCC[C@H](C(=O)O)N1C(=O)CSC1c1cccc(Oc2ccc(C(C)(C)C)cc2)c1` (stereo partly specified), the IC50 in assay [2] came to 7.7 µM.
Turning to `CC(C)(C)c1ccc(Oc2cccc(C3SCC(=O)N3[C@@H](CCCN)C(=O)O)c2)cc1` (stereo partly specified), the IC50 result in assay [1] was “Not Active”.
On the same count and under the same terms, the entry for `CC(C)(C)c1ccc(Oc2cccc(C3SC(CC(=O)NNc4ccccc4)C(=O)N3[C@@H](CCCN)C(=O)O)c2)cc1` (stereo partly specified) is “Not Active”.
On the same count and under the same terms, the value for `CC(C)(C)c1ccc(Oc2cccc(C3SC(CC(=O)NNc4ccccc4)C(=O)N3[C@@H](CC(=O)O)C(=O)O)c2)cc1` (stereo partly specified) was “Not Active”.
In assay [2], `CCCC[C@H](C(=O)O)N1C(=O)C(CC(=O)NNc2ccccc2)SC1c1cccc(Oc2ccc(C(C)(C)C)cc2)c1` (stereo partly specified) registered an IC50 of 7.7 µM.
`CC(C)(C)c1ccc(Oc2cccc(C3SCC(=O)N3CC(=O)O)c2)cc1` (stereo unspecified): the IC50 entry in assay [1] is reported as “Not Active”.
On the same count and under the same terms, the value for `CC(C)(C)c1ccc(Oc2cccc(C3SC(CC(=O)NNc4ccccc4)C(=O)N3[C@@H](CO)C(=O)O)c2)cc1` (stereo partly specified) was “Not Active”.
`CCCC[C@@H](C(=O)O)N1C(=O)C(C)SC1c1cccc(Oc2ccc(C(C)(C)C)cc2)c1` (stereo partly specified) yielded an IC50 in assay [2] of 14 µM.
Regarding `CC(C)(C)c1ccc(Oc2cccc(C3SCC(=O)N3[C@@H](Cc3ccccc3)C(=O)O)c2)cc1` (stereo partly specified), the IC50 entry in assay [1] is given as “Not Active”.
`CCCC[C@@H](C(=O)O)N1C(=O)CSC1c1cccc(Oc2ccc(C(C)(C)C)cc2)c1` (stereo partly specified): half-maximal inhibition in assay [2] (IC50) was put at 28.4 µM.
Regarding `CC1SC(c2cccc(Oc3ccc(C(C)(C)C)cc3)c2)N([C@@H](CCCN)C(=O)O)C1=O` (stereo partly specified), in assay [1], the IC50 result was “Not Active”.
Still for that read-out and setting: the entry for `CC(C)(C)c1ccc(Oc2cccc(C3SC(CC(=O)NNc4ccccc4)C(=O)N3[C@@H](Cc3ccccc3)C(=O)O)c2)cc1` (stereo partly specified) is “Not Active”.
Turning to `CCCC[C@@H](C(=O)O)N1C(=O)C(CC(=O)NNc2ccccc2)SC1c1cccc(Oc2ccc(C(C)(C)C)cc2)c1` (stereo partly specified), the IC50 in assay [2] was determined as 11 µM.
Take `CCCC[C@H](C(=O)O)N1C(=O)C(C)SC1c1cccc(Oc2ccc(C(C)(C)C)cc2)c1` (single isomer, unassigned): the IC50 in assay [2] worked out at 10 µM.
